{"source": "patent US20260130864A1", "about": "“METHOD AND COMPOSITION FOR ENHANCING EXERCISE PERFORMANCE” (NANJING NUTRABUILDING BIO-TECH CO., LTD., priority 2023, published 2026)", "format_in_all_cases": "in vivo", "key": {"dopamine": {"tested_on": "dopamine", "assay": "dopamine content in the brain of mice (ELISA)", "settings": "4 weeks; for dopamine content in the brain: control 3,293 ng/g brain", "protocol": "(§1) Twenty-four pure Swiss male mice were randomly divided into three groups, with 8 mice in each group, and were given food and water freely under the light and dark cycle of 12:12 hours. The first group was the control group (group 1, no DHZ), the second group was given by gavage 50 mg/kg DHZ (group 2), and the third group was given by gavage 100 mg/kg DHZ (group 3). DHZ solution was prepared with 5% DMSO, 25% PEG-400, 30% propylene glycol and 40% normal saline. All the mice were administered at a dose of 10 mL/kg body weight for 4 weeks. 4 weeks later, these mice were made to run on treadmill voluntarily for exercise analysis, and the running distance of each of mice when exhausted was recorded. All the mice were untrained before exercise. Each group was perfused with paraformaldehyde, and brain tissue was frozen in liquid nitrogen for ELISA, and then dopamine was detected. The cecal feces of mice were collected and the flora was sequenced by 16s. The proportion of different bacteria in feces was obtained, and the DNA in feces was extracted to detect the copy number of Eubacterium rectale and Coprococcus eutactus. The statistical analysis of data was conducted by unpaired t-test, and * indicates significant difference. Compared with the control group, * means p<0.05; ** means p<0.01; *** means p<0.001; **** means p<0.0001."}, "Eubacterium rectale": {"tested_on": "Eubacterium rectale", "assay": "bacterial copy number of Eubacterium rectale in cecal feces of mice", "settings": "after 4 weeks of DHZ administration", "protocol": "as §1, with “p<0.0001. […]” for “p<0.0001.”"}, "Coprococcus eutactus": {"tested_on": "Coprococcus eutactus", "assay": "bacterial copy number of Coprococcus eutactus in cecal feces of mice", "settings": "after 4 weeks of DHZ administration", "protocol": "as §1, with “p<0.0001. […]” for “p<0.0001.”"}, "[1]": {"assay": "treadmill exercise endurance of mice after 4 weeks administration", "settings": "for running distance on treadmill when exhausted (exercise endurance): Swiss male mice, control 948 m", "protocol": "as §1"}, "[2]": {"settings": "high dose group (100 mg/kg by gavage)"}}}
{"smiles": "COc1cc(/C=C/C(C)=O)ccc1O", "note": "[DHZ, Dehydrozingerone]", "values": [{"measurement": "brain dopamine level, times higher than in the control group", "setting": "dopamine; [2]", "value": 5, "unit": "times"}, {"measurement": "dopamine content in the brain", "setting": "dopamine; [2]", "value": "19,988 ng/g brain"}, {"measurement": "dopamine content in the brain", "setting": "dopamine; low dose group (50 mg/kg by gavage)", "value": "16,285 ng/g brain"}, {"measurement": "increase of number (copy number) of Eubacterium rectale compared with the control group", "setting": "Eubacterium rectale", "value": "about 3 times"}, {"measurement": "increase of number (copy number) of Coprococcus eutactus compared with the control group", "setting": "Coprococcus eutactus", "value": "about 3 times"}, {"measurement": "running distance on treadmill when exhausted (exercise endurance)", "setting": "[1]; 50 mg/kg DHZ by gavage (low-dose group)", "value": 1112, "unit": "m"}, {"measurement": "running distance on treadmill when exhausted (exercise endurance)", "setting": "[1]; 100 mg/kg DHZ by gavage (high-dose group)", "value": 1367, "unit": "m"}, {"measurement": "exercise performance higher than that of control group", "setting": "[1]; high-dose group (100 mg/kg by gavage)", "value": 44, "unit": "%"}]}
